{
  "source": "paper PMC3269340",
  "about": "“Pharmacokinetics of memantine in rats and mice” (PLoS Currents, 2012)",
  "key": {"[1]": {"details": "cited from earlier work"}, "OCT2": {"target": "T1, OCT2 (Homo sapiens, UniProt O15244)", "T1 construct": "expressed in transfected cells; host or cells: CHO cells", "T1 sequence (O15244 1-555)": "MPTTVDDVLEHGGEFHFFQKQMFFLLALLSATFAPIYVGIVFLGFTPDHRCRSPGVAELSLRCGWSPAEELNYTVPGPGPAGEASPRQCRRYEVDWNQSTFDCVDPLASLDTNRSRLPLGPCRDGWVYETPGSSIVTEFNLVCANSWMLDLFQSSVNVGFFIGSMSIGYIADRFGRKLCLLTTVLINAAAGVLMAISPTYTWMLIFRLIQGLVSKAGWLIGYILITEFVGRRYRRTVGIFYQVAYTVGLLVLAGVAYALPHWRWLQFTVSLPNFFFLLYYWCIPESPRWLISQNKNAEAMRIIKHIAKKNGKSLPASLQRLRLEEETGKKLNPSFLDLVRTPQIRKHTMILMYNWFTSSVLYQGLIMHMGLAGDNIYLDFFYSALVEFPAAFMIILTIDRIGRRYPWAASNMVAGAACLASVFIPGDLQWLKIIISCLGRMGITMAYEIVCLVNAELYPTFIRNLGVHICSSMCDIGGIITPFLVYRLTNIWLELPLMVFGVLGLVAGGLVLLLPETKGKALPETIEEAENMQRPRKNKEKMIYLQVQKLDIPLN", "test": "Direct uptake transporter assay, OCT2", "assay_type": "in vitro ADME", "details": "for Accumulation in transporter transfected cells: OCT2-transfected cells; for Accumulation in parental cells: parental CHO cells (OCT2 line)", "procedure": "To determine whether memantine is a substrate of the human OATP2B1 (OATP-B), OCT1, OCT2, OAT3, PEPT1, PEPT2 uptake transporters.\nThe potential for memantine to be a substrate of an uptake transporter was determined directly by comparing the uptake of memantine into cells expressing the selected uptake transporter with its uptake into control cells. Memantine was added to transporter-expressing and control cells at two concentrations (PEPT1 and PEPT2 100 and 300 µM, OCT1 and OCT2 50 and 100 µM, OATP2B1 100 and 300 µM), and incubated with cells for 2 and 20 min at 37±1°C (75 µL final incubation volume). […] Incubations were carried out as described in the indirect uptake transporter assays. The concentration of memantine was determined by LC-MS/MS."}, "human OCT1": {"target": "T2, human OCT1 (Homo sapiens, UniProt O15245)", "T2 construct": "expressed in transfected cells; host or cells: CHO cells", "T2 sequence (O15245 1-554)": "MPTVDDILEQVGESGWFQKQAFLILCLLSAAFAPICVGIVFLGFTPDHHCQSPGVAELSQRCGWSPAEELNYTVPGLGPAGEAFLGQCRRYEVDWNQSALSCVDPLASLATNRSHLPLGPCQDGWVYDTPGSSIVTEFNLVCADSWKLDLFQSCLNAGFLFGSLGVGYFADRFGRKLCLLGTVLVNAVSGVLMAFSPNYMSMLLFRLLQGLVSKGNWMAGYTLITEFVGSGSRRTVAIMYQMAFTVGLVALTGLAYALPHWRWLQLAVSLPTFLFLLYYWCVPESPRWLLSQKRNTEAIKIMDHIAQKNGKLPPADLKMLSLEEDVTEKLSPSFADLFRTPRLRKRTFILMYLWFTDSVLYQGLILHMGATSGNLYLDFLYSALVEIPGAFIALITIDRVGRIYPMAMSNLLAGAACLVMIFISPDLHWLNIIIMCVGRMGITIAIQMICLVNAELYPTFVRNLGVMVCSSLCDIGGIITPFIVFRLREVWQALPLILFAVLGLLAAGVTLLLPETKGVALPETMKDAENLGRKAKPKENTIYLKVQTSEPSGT", "test": "Indirect uptake transporter assay, OCT1", "assay_type": "in vitro ADME", "text": "To determine whether memantine is an inhibitor of the human OATP2B1 (OATP-B), OCT1, OCT2, OAT3, PEPT1, PEPT2 uptake transporters. The standard uptake transporter assay is an indirect, inhibitory-type screening assay, performed with cold test article, which in this case was memantine. It provides information on any interaction (substrate or inhibitor) between selected uptake transporters and memantine that would affect the transport of the reporter compound. […] A radiolabeled reporter substrate is transported into the cells transfected with the selected human uptake transporter, and the inhibitory effect of memantine on the transport of this reporter substrate is measured. Values are presented on a relative scale; 100% defined as transport in the presence of the solvent and without memantine (no inhibition), and 0% defined as transport detected without transporter activity. IC50 is defined as the concentration required to inhibit the transport of the reporter substrate by 50%. […]\nAfter the experiment cells were rinsed with 2 x 100µl of Krebs-Henseleit buffer and lysed with 50 µl of 0.1M NaOH. ^3H-estrone-3-sulfate, ^14C-TEA, ^14C-metformin and ^3H-Gly-Sar transport was determined by total radioactivity by transferring an aliquot (35µl) from each well to a vial containing liquid scintillant for analysis."}},
  "note": "“And” between values parts separate entries of the source, which are not always exact repeats. Identical values can stand only once. Like-named read-outs stand apart in the source and are kept apart here.",
  "data": [
    {"molecule": "CC12CC3CC(C)(C1)CC(N)(C3)C2", "note": "[memantine]", "values": [
      {"measurement": "Cmax", "setting": "[1]; human plasma/serum, 10 mg twice daily po, normal renal clearance", "value": 83.5, "unit": "ng/mL"},
      {"measurement": "Cmax", "setting": "[1]; human plasma/serum, 10 mg twice daily, read-out: Cmax", "value": 470, "unit": "nM"},
      {"measurement": "Cmax", "setting": "[1]; human, 10 mg BID po, read-out: Cmax", "value": 470, "unit": "nM"},
      {"measurement": "C min", "setting": "[1]; human, 10 mg BID", "value": 300, "unit": "nM"},
      {"measurement": "Cmax/Cmin ratio at steady state", "setting": "[1]; human, 10 mg BID", "value": 1.54},
      {"measurement": "renal clearance as share of total systemic clearance", "setting": "[1]; human, acidic conditions", "value": 92, "unit": "%"},
      {"measurement": "renal clearance as share of total systemic clearance", "setting": "[1]; human, alkaline conditions", "value": "60-67%"},
      {"measurement": "Total plasma clearance (Clp)", "setting": "[1]; human, normal renal function", "value": 182, "unit": "mL/min"},
      {"measurement": "renal clearance (Clr)", "setting": "[1]; human, normal renal function", "value": 164, "unit": "mL/min"},
      {"measurement": "share of total plasma clearance accounted for by renal clearance", "setting": "[1]; human, normal renal function", "value": 90, "unit": "%"},
      {"measurement": "Tmax", "setting": "[1]; human, po", "value": "4 to 6", "unit": "h"},
      {"measurement": "dose eliminated as intact memantine in the urine", "setting": "[1]; human", "value": "75-90%"},
      {"measurement": "elimination half-life", "setting": "[1]; human", "value": "60 to 80", "unit": "h"},
      {"measurement": "volume of distribution at steady state (Vdss)", "setting": "[1]; human", "value": "9 to 11", "unit": "L/kg"},
      {"measurement": "substrate of OCT2 uptake transporter", "setting": "OCT2", "value": "appeared to be a substrate"},
      {"measurement": "accumulation in transporter-transfected cells higher than in parental cells", "setting": "OCT2; OCT2", "value": "> 1.5", "unit": "fold"},
      {"measurement": "Highest Fold Activation", "setting": "OCT2; OCT2, 100µM, 2 min", "value": "1.88 (100µM, 2 min)"},
      {"measurement": "Accumulation in transporter transfected cells", "setting": "OCT2; 2 min, 50 µM", "value": 8492, "unit": "pmol/mg"},
      {"measurement": "Accumulation in transporter transfected cells", "setting": "OCT2; 2 min, 100 µM", "value": 15071, "unit": "pmol/mg"},
      {"measurement": "Accumulation in transporter transfected cells", "setting": "OCT2; 20 min, 50 µM", "value": 8866, "unit": "pmol/mg"},
      {"measurement": "Accumulation in transporter transfected cells", "setting": "OCT2; 20 min, 100 µM", "value": 15495, "unit": "pmol/mg"},
      {"measurement": "Accumulation in parental cells", "setting": "OCT2; 2 min, 50 µM", "value": 5660, "unit": "pmol/mg"},
      {"measurement": "Accumulation in parental cells", "setting": "OCT2; 2 min, 100 µM", "value": 8000, "unit": "pmol/mg"},
      {"measurement": "Accumulation in parental cells", "setting": "OCT2; 20 min, 50 µM", "value": 5790, "unit": "pmol/mg"},
      {"measurement": "Accumulation in parental cells", "setting": "OCT2; 20 min, 100 µM", "value": 8459, "unit": "pmol/mg"},
      {"measurement": "Maximal Inhibition", "setting": "human OCT1; OCT1, up to 300 µM", "value": "~94", "unit": "%"},
      {"measurement": "IC50", "setting": "human OCT1; OCT1, probe in Table 5: Gly-Sar (1.8 μM), methods and text: TEA", "value": "3.5 µM and 3.51 µM"}
    ]}
  ]
}
